# Assay results published in PMC8916034, “Abubidentin A, New Oleanane-type Triterpene Ester from Abutilon bidentatum and its antioxidant, cholinesterase and antimicrobial activities” (PeerJ, 2022).
# Values joined by “and” are separate entries in the source; they are usually repeats but may differ in a detail not shown here. Identical values can stand only once. Like-named read-outs stand apart in the source and are kept apart here.
# Assays:
# [1] = DPPH radical scavenging activity; conditions: for AA (mg/gm) Avg (DPPH activity) / AA (mg/gm) (DPPH activity), single trial: Conc 20 µg/mL; for AA (mg/gm) Avg (DPPH activity): average of trials A-C; for AA (mg/gm) (DPPH activity), single trial: single trials A, B, C; for DPPH IC50: mean ± SD, triplicate, 30 min, 517 nm
# Description: The ability of the samples to scavenge DPPH radical was determined by [Wang, Chen & Hou (2019)] method with slight modification ([Wang, Chen & Hou, 2019]). […] Samples were incubated at ambient temperature under dark conditions for 30 min and the absorbance wavelength was measured at 517 nm against a blank sample. DPPH^• solution and ascorbic acid were used as blank samples and positive control, respectively.
# where Ab and As are the absorbance values of the blank and test samples, respectively.
# [2] = ABTS radical cation decolorization assay; conditions: for AA (mg/gm) Avg (ABTS+ activity) / AA (mg/gm) (ABTS+ activity), single trial: Conc. 20 µg/mL; for AA (mg/gm) Avg (ABTS+ activity): average of trials A-C; for AA (mg/gm) (ABTS+ activity), single trial: single trials A, B, C; for ABTS^+ IC50: mean ± SD, triplicate, 30 min, 734 nm
# Description: ABTS radical cation decolorization assay was performed to measure the total antioxidant activity of the samples by obeying the previously described method ([Re et al., 1999]). In brief, ABTS^•+ radicals were generated by treating 7 mM ABTS^+ aqueous solution with 2.4 mM potassium persulfate for 12-16 h at room temperature in the dark. Prior to use, this solution was diluted with ethanol (approx. 1:89 v/v) and equilibrated to […] absorbance at 734 nm to obtain the working solution. Afterward, a 1.0 mL of working solution was reacted with 20 µL (1 mg mL^−1) samples and incubated for 30 min. After incubation, samples were scanned at 734 nm absorbance wavelength and the percentage of inhibition was determined. Ascorbic acid (AA) was applied reference standard.
# [3] = test system: Escherichia coli (ATCC 25922); assay: MIC, broth microdilution with resazurin; format: cell-based; conditions: 24 h at 37 °C; for MIC: Escherichia coli, ATCC25922, 24 h
# Description: (§1) The acetylcholinesterase (AChE) and butyrylcholinesterase (BChE) were obtained from the mouse brain and human blood at the Pharmacology Department of King Saud University, SaudiArabia. Escherichia coli (ATCC 25922), Pseudomonas aeruginosa (ATCC 27853), and Staphylococcus aureus were provided by Microbiology Department, King Khaled University Hospital (KKUH), Saudi Arabia.
# (§2) Minimum inhibitory concentration (MIC) assay was performed to evaluate the in vitro antimicrobial activities using a broth microdilution method ([Nascente, 2009]). Three bacterial strains Escherichia coli (ATCC 25922), Pseudomonas aeruginosa (ATCC 27853), and Staphylococcus aureus were applied to examine the antimicrobial activity of samples. Briefly, the microbial strains were transferred to Muller Hinton agar (MHB, HiMedia, India) and 24-h colonies were individually suspended in 10 mL Muller Hinton broth (MHB, HiMedia, India). The suspension of each microbial strain was standardized at 575 nm wavelength using a spectrophotometer (CRAIC Technologies, CA, USA), to match the McFarland scale (1.5 × 10^8 CFU mL^−1). The standardized suspension was further diluted to obtain a final concentration of 5 × 10^5 CFU mL^−1. The samples prepared in DMSO at 1 mgmL^−1 and different concentrations (30–500 µgmL^−1) were attained after dilution in Mueller Hinton broth. Three inoculated wells containing different concentrations of DMSO (4% to 1% range), one non-inoculated well without an antimicrobial agent and negative controls were included. The inoculated well was used to monitor whether the broth was sufficient for the microbial strain to grow. Chloramphenicol ([…]) was applied as a positive control. The sample treated 96-well microplates were sealed and incubated for 24 h at 37 °C After a 1-day incubation, […] of 0.02% resazurin solution was added into each well to examine the viability of the microbial strain ([Palomino et al., 2002]). The minimum used concentration of test sample that inhibited the microorganism growth (MIC value) was calculated as the minimum concentration of the test samples required to prevent the color change of the resazurin solution. All the assays were performed in triplicates.
# [4] = test system: Pseudomonas aeruginosa (ATCC 27853); assay: MIC, broth microdilution with resazurin; format: cell-based; conditions: 24 h at 37 °C; for MIC: Pseudomonas aeruginosa, ATCC27853, 24 h
# Description: as §1, §2
# Staphylococcus aureus = assay: MIC, broth microdilution with resazurin; format: cell-based; conditions: 24 h at 37 °C; for MIC: Staphylococcus aureus, 24 h
# Description: as §1, §2
# [5] = molecular target: T1, acetylcholinesterase (AChE) (Mus musculus, UniProt P21836); assay: biochemical; conditions: for Donep (mg/gm) Avg (AChE inhibitory activity) / Abs (AChE inhibitory activity) / Donep (mg/gm) (AChE inhibitory activity), single trial: Conc 10 µg/mL; for Donep (mg/gm) Avg (AChE inhibitory activity): average of trials A-C; for Abs (AChE inhibitory activity) / Donep (mg/gm) (AChE inhibitory activity), single trial: single trials A, B, C
# T1 construct: Crude enzymes, AChE (acetylcholinesterase) and BChE (butyrylcholinesterase) were collected from brain of mice and blood of humans, respectively; from tissue; host or cells: mouse brain
# T1 sequence (P21836 32-614): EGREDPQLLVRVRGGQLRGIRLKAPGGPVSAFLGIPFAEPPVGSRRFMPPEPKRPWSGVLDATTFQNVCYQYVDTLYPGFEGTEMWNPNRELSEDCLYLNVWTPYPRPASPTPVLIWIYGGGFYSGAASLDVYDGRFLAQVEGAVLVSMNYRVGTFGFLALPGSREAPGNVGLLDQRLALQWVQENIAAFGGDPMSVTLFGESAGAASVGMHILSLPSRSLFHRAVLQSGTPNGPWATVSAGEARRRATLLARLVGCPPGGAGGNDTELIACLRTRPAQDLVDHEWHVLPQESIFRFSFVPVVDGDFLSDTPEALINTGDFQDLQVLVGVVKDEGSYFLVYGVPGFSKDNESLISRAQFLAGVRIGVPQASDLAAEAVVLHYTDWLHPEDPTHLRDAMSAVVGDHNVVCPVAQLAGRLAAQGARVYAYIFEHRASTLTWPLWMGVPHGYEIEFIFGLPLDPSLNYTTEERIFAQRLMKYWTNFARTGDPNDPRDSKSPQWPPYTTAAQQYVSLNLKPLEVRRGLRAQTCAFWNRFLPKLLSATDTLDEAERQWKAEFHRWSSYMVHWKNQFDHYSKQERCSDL
# Description: (§3) The acetylcholinesterase (AChE) and butyrylcholinesterase (BChE) were obtained from the mouse brain and human blood at the Pharmacology Department of King Saud University, SaudiArabia.
# (§4) The AChE and BChE assays were tested by using two chemical substrates acetylthiocholine iodide and S-butyrylthiochoilne iodide, respectively. […] Afterwards, […] (1 mM, 62 µL), sodium phosphate buffer (50 mM, 25 µL, pH 8) provided with bovine albumin serum (0.1%) and […] (0.5 mm, 13 µL) were added separately into each reaction mixture. […] All the experiments were performed in triplicates to avoid error and the results were estimated through the two-tailed Student’s t-test at a p < 0.05 significance. The inhibition percentage of cholinesterase activity was calculated using the following equation I%=AC−As/AC×100
# (§5) where Ac and As is the absorbance of control and sample or reference compound. IC50 values could be determined from the dose response curve obtained by plotting the percent inhibition values against test concentrations of each compound.
# [6] = molecular target: T2, butyrylcholinesterase (BChE) (Homo sapiens, UniProt P06276); assay: biochemical; conditions: for Gal (mg/gm) Avg (BChE inhibitory activity) / Abs (BChE inhibitory activity) / Gal (mg/gm) (BChE inhibitory activity), single trial: Conc 10 µg/mL; for Gal (mg/gm) Avg (BChE inhibitory activity): average of trials A-C; for Abs (BChE inhibitory activity) / Gal (mg/gm) (BChE inhibitory activity), single trial: single trials A, B, C;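 as to Abs (BChE inhibitory activity): absorbance read at 405 nm against blank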
# T2 construct: Crude enzymes, AChE (acetylcholinesterase) and BChE (butyrylcholinesterase) were collected from brain of mice and blood of humans, respectively; from tissue; host or cells: human blood
# T2 sequence (P06276 29-602): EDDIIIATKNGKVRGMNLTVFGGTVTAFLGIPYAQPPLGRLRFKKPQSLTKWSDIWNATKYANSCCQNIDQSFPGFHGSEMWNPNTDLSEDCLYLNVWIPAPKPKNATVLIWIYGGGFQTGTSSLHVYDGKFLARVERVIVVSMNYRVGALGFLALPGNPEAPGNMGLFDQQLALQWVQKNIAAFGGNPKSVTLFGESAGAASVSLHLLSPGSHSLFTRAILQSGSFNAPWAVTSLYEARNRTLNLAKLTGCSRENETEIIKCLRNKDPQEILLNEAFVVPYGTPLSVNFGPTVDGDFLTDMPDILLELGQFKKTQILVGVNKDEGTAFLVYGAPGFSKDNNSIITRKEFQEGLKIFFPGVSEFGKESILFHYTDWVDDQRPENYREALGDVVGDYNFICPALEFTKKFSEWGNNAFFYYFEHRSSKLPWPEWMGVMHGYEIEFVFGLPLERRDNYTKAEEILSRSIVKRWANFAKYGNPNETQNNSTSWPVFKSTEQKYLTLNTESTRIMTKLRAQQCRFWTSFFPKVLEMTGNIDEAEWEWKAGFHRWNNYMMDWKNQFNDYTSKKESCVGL
# Description: as §3, §4, §5
# [7] = E. coli, read-out: Minimum inhibitory concentration
# [8] = P. aeruginosa, read-out: Minimum inhibitory concentration
# [9] = S. aureus, read-out: Minimum inhibitory concentration
# [10] = crude enzyme from mouse brain, mean ± SD, triplicate, read-out: AChE IC50 (converted)
# [11] = crude enzyme from human blood, mean ± SD, triplicate, read-out: BChE IC50 (converted)
SMILES,AA (mg/gm) Avg (DPPH activity) [1] [mg/gm],"AA (mg/gm) (DPPH activity), single trial [1]",DPPH IC50 [1],AA (mg/gm) Avg (ABTS+ activity) [2] [mg/gm],"AA (mg/gm) (ABTS+ activity), single trial [2]",ABTS^+ IC50 [2],"MIC [3, 7] [µg/mL]","MIC [4, 8] [µg/mL]",MIC (Staphylococcus aureus; [9]) [µg/mL],Donep (mg/gm) Avg (AChE inhibitory activity) [5] [mg/gm],Abs (AChE inhibitory activity) [5],"Donep (mg/gm) (AChE inhibitory activity), single trial [5]","IC50 [5, 10] [µM]",Gal (mg/gm) Avg (BChE inhibitory activity) [6] [mg/gm],Abs (BChE inhibitory activity) [6],"Gal (mg/gm) (BChE inhibitory activity), single trial [6]","IC50 [6, 11] [µM]",Minimum inhibitory concentration ([3]; E. coli) [µg/mL],Minimum inhibitory concentration ([4]; P. aeruginosa) [µg/mL],Minimum inhibitory concentration (Staphylococcus aureus; S. aureus) [µg/mL],further results
"O=C1O[C@H]([C@@H](O)CO)C(O)=C1O [Ascorbic acid, ascorbic acid, reference compound]",3.12,3.30 mg/gm and 2.84 mg/gm and 3.22 mg/gm,3.12 ± 0.24^a µgmL^−1,4.45,4.52 mg/gm and 4.25 mg/gm and 4.58 mg/gm,4.45 ± 0.17^a µgmL^−1,–,–,–,–,–,–,–,–,–,–,–,–,–,–,–
"O=C(N[C@H](CO)[C@H](O)c1ccc([N+](=O)[O-])cc1)C(Cl)Cl [Chloramphenicol, reference compound]",–,–,–,–,–,–,≤ 40,≤ 40,≤ 40,–,–,–,–,–,–,–,–,–,–,–,–
"CCCCCCCCCCCCCCCCCCCCC(O)C(=O)O (stereo not drawn) [Compound 1, 2-hydroxydocosanoic acid]",10.82,10.98 mg/gm and 10.54 mg/gm and 10.96 mg/gm,10.82 ± 0.24^d µgmL^−1,11.45,11.64 mg/gm and 11.02 mg/gm and 11.70 mg/gm,11.45 ± 0.37^d µgmL^−1,≤ 500,≤ 1000,≤ 1000,121.97,0.342 and 0.328 and 0.345,122.89 mg/gm and 120.10 mg/gm and 122.92 mg/gm,342,137.76,0.375 and 0.379 and 0.354,138.12 mg/gm and 136.98 mg/gm and 138.18 mg/gm,386,–,–,–,–
"CC[C@@H](/C=C/[C@@H](C)C1CCC2C3CCC4C[C@@H](O)CC[C@]4(C)C3CC[C@@]21C)C(C)C (stereo partly drawn) [Compound 2, stigmasta-22-ene-3-β-ol]",7.60,7.84 mg/gm and 7.12 mg/gm and 7.86 mg/gm,7.60 ± 0.42^c µgmL^−1,8.18,8.25 mg/gm and 8.02 mg/gm and 8.28 mg/gm,8.18 ± 0.13^c µgmL^−1,–,–,–,68.65,0.312 and 0.315 and 0.317,68.94 mg/gm and 68.01 mg/gm and 69.02 mg/gm,–,49.52,0.355 and 0.365 and 0.358,49.70 mg/gm and 49.12 mg/gm and 49.74 mg/gm,–,≤125,≤250,≤150,"IC50 [5]: 166 µM; IC50 [6]: 119 µM; MIC ([3]; read-out: Minimum inhibitory concentration, E. coli): ≤ 125 µg/mL; MIC ([4]; read-out: Minimum inhibitory concentration, P. aeruginosa): ≤ 250 µg/mL; MIC (Staphylococcus aureus; read-out: Minimum inhibitory concentration, S. aureus): ≤ 150 µg/mL"
"CCCCCCCCCCCCCCCCCCCCCCCCCCCCCCCC(=O)O[C@H]1C[C@H](O)[C@]2(C)C3=CC=C4[C@@H]5CC(CO)(C(=O)O)CC[C@]5(C)CC[C@@]4(C)[C@]3(C)CCC2C1(C)C (stereo partly drawn) [Compound 3, 1α,3β,30-Trihydroxy-29-carboxy-olean-9(11), 12-diene-3-dotriacontanoate]",4.67,4.89 mg/gm and 4.35 mg/gm and 4.78 mg/gm,4.67 ± 0.28^b µgmL^−1,6.42,6.56 mg/gm and 6.13 mg/gm and 6.58 mg/gm,6.42 ± 0.25^b µgmL^−1,125 to 150,125 to 150,125 to 150,38.13,0.289 and 0.294 and 0.315,38.16 mg/gm and 38.05 mg/gm and 38.20 mg/gm,40.2,32.68,0.285 and 0.286 and 0.287,32.88 mg/gm and 32.25 mg/gm and 32.92 mg/gm,34.4,≤150,≤125,≤125,"Minimum inhibitory concentration ([3]; E. coli, listed as compound 3): ≤ 150 µg/mL; Minimum inhibitory concentration ([4]; P. aeruginosa, listed as compound 3): ≤ 125 µg/mL; Minimum inhibitory concentration (Staphylococcus aureus; S. aureus, listed as compound 3): ≤ 125 µg/mL"
"COc1ccc2c3c1O[C@H]1C[C@@H](O)C=C[C@@]31CCN(C)C2 [Galantamine, reference compound]",–,–,–,–,–,–,–,–,–,–,–,–,–,10.27,0.345 and 0.348 and 0.352,10.78 mg/gm and 9.29 mg/gm and 10.80 mg/gm,–,–,–,–,–
